In US9480680B2, “Stable pharmaceutical composition of clopidogrel free base for oral and parenteral delivery” (priority 2013, dated 2016):
Like-named read-outs stand apart in the source and are kept apart here. Values belong to the compound of their own block, whether it stands above or below them.

Key:
[1] = for Concentration, Aqueous Phase / Concentration, Oil Phase: 600 mg drug in 20 g soy bean oil + 20 g DI water, stirred at room temperature 24 hours, HPLC; for pH of aqueous phase: aqueous phase at end of partition study; for O/W partition ratio: soy bean oil / DI water, room temperature 24 hours
Protocol: In order to determine percentage of clopidogrel partitioning in oil and aqueous phases, a partition study was conducted using clopidogrel biosulfate and clopidogrel free base. 600 mg of drug was weighed out and added to a beak containing equal weight of soy bean oil and DI water (20 g each). Stir the mixture in room temperature for 24 hours. At the end of study, samples from both phases were withdrawn and tested by HPLC as described in Example 14. The pH of the aqueous phase were measured.

[2] = cited from earlier work
[3] = 5 min
Description: As used herein the disease or condition refers to any disease or condition which may be treated using clopidogrel containing medicine for the prevention of atherothrombotic events such as myocardial infarction, stroke, peripheral arterial disease, acute coronary syndrome, and cardio-vascular death.

platelet aggregation = conditions: cited from earlier work
[4] = cited from earlier work; remark: listed apart in the source

- Concentration, Aqueous Phase [1]: 15000 µg/mL
- Concentration, Oil Phase [1]: 17000 µg/mL
- pH of aqueous phase [1]: 2
- clopidogrel staying in the aqueous phase ([1]; soy bean oil / DI water partition study): about 50%
- O/W partition ratio [1]: 1.1
Structure (SMILES): COC(=O)[C@H](c1ccccc1Cl)N1CCc2sccc2C1 [Clopidogrel bisulfate]
- stability under increased moisture and temperature ([2]; listed as clopidogrel biosulfate): relatively unstable

- Concentration, Aqueous Phase [1]: 6 µg/mL
- Concentration, Oil Phase [1]: 29000 µg/mL
- pH of aqueous phase [1]: 7
- amount of clopidogrel in the aqueous phase ([1]; soy bean oil / DI water partition study, result in words): negligible
- O/W partition ratio [1]: 4833
- degradation in diluted NaOH solution [3]: degraded completely in 5 minutes
Structure (SMILES): COC(=O)[C@H](c1ccccc1Cl)N1CCc2sccc2C1 [Clopidogrel free base, methyl (+)-(S)-α-(o-chlorophenyl)-6,7-dihydrothieno[3,2-c]pyridine-5(4H)-acetate]
- solubility in ethyl ether ([2]; ethyl ether): practically insoluble
- stability under increased moisture and temperature [2]: unstable
- solubility in methanol ([2]; methanol): dissolves freely
- solubility in methylene chloride ([2]; methylene chloride): dissolves sparingly
- solubility at pH 1 ([2]; pH 1): freely soluble
- solubility in water at neutral pH ([2]; water, neutral pH): practically insoluble
- biological / pharmacological activity (platelet aggregation): biologically active

Structure (SMILES): O=C(O)[C@H](c1ccccc1Cl)N1CCc2sccc2C1 [Impurity A]
- biological / pharmacological activity (platelet aggregation): no pharmacological activity

Structure (SMILES): COC(=O)[C@@H](c1ccccc1Cl)N1CCc2sccc2C1 [Impurity C, methyl ( )-(R)-(o-chlorophenyl)-6,7-dihydrothieno[3,2-c]pyridine-5(4H)-acetate]
- anti-aggregation activity (platelet aggregation): does not exhibit any anti-aggregation activity
- convulsions ([4]; high doses of animals): can evoke convulsions
- tolerability ([4]; in vivo): poorly tolerated
